How the values were obtained:
[1] = tested on: newly introduced microorganisms; test: shelf life of dispersion paint after post-preservation; conditions: 50 ppm 2-methyl-1,2-benzisothiazolin-3-one and 10 ppm zinc oxide added after decomposition of CMIT by cysteine
Experimental: The paint produced in this manner was now free of microorganisms through the use of the effective broad-spectrum biocide 5-chloro-2-methylisothiazolin-3-one, but susceptible to newly introduced microorganisms, which can infiltrate the paint during storage, due to the decomposition of the biocide by cysteine.
In order to protect the paint from such a microbial attack during storage, 50 ppm 2-methyl-1,2-benzisothiazolin-3-one and 10 ppm zinc oxide, based on the dispersion paint, were added to the dispersion paint for post-preservation.

[2] = decomposition of 2-methylisothiazolin-3-one in aqueous dispersion paint using sodium thiosulfate; type: physicochemical
From the text: However, it is disadvantageous that, according to the described method, said isothiazolinones, particularly MIT, are not quantitatively and/or irreversibly destroyed, as a result of which they are still contained in the products and reaction products and still can cause problems for people prone to allergic reactions, and/or cause contact dermatitis or aerogenic contact dermatitis in highly sensitive people.

[3] = tested on: microorganisms introduced by the individual components of the paint; test: microbiological testing of dispersion paint preserved with 5-chloro-2-methylisothiazolin-3-one; type: cell-based; conditions: 20 ppm 5-chloro-2-methylisothiazolin-3-one with <1 wt % 2-methylisothiazolin-3-one; water-based dispersion paint; growth detectable in individual components
Experimental: 20 ppm 5-chloro-2-methylisothiazolin-3-one, with a content of 2-methylisothiazolin-3-one of <1 wt %, was added to a preservative-free styrene acrylate dispersion. The styrene acrylate dispersion preserved in this manner was then used to produce a water-based dispersion paint. The paint produced had the following composition: • 25.7 wt % water • 0.2 wt % acrylate-based wetting and dispersion agents • 0.2 wt % mineral oil-based defoamer • 2.0 wt % water softener (sodium polyphosphate) • 0.2 wt % ammonia • 4.0 wt % titanium oxide (pigment) • 51.0 wt % calcium carbonate (filler) • 5.0 wt % talcum (filler) • 0.4 wt % cellulose ether • 2.0 wt % organic solvent for lowering the minimum film-forming temperature • 9.0 wt % of the styrene acrylate dispersion preserved with 20 ppm 5-chloro-2-methylisothiazolin-3-one • 20 ppm 5-chloro-2-methylisothiazolin-3-one, with a content of 2-methylisothiazolin-3-one of <1 wt %

[4] = decomposition of 5-chloro-2-methylisothiazolin-3-one in dispersion paint by cysteine, HPLC; type: physicochemical; conditions: 3 hours after adding 50 ppm cysteine, based on the dispersion paint
From the text: In order to produce a paint, which is harmless for allergy suffers with respect to the 5-chloro-2-methylisothiazolin-3-one and 2-methylisothiazolin-3-one, from the dispersion paint, which contained significant quantities of 5-chloro-2-methylisothiazolin-3-one, these isothiazolin-3-ones were decomposed by adding 50 ppm cysteine, based on the dispersion paint.

Structure (SMILES): Cn1sc2ccccc2c1=O [2-methyl-1,2-benzisothiazolin-3-one]
- shelf life of the paint [1]: at least 6 months

Structure (SMILES): Cn1sccc1=O [2-methylisothiazolin-3-one]
- destruction of 2-methylisothiazolin-3-one using sodium thiosulfate [2]: could not be quantitatively or irreversibly destroyed

Structure (SMILES): Cn1sc(Cl)cc1=O [5-chloro-2-methylisothiazolin-3-one]
- microbial growth in the dispersion paint [3]: no microbial growth was found
- 5-chloro-2-methylisothiazolin-3-one detectable in the dispersion paint by HPLC [4]: no more 5-chloro-2-methylisothiazolin-3-one was detectable
